Measured values reported in patent US12595251B2, “Amidines and amidine analogs for the treatment of bacterial infections and potentiation antibiotics” (GEORGIA STATE UNIVERSITY RESEARCH FOUNDATION, INC., priority 2018, dated 2026).

How the values were obtained:
Type in all cases: cell-based
H9c2 cells = experiment: Cytotoxicity in H9c2 cells (CCK-8, 24 h)
Description: (§1) H9c2 (ATCC®R-1446™) cells Were used in the studies. The H9c2 cells were maintained in DMEM (Dulbeccoa's Modified Eagle's Medium) supplemented with 10% fetal bovine serum (Mid Sci; S01520HI) and 1% penicillin-streptomycin (Sigma-Aldrich; P4333) at 37° C. with 5% CO2. The H9c2 cells were seeded in 96-well plate one day before the experiment. Different concentrations of di-amidine compounds were added into the H9c2 cells. The cells were then incubated with the compounds for 24 h at 37° C. with 5% CO2. The cell viability was tested by the CCK-8. Specifically, after 24 h incubation, 10 μL CCK-8 was added to each well. After 3 h incubation at 37° C., the absorbance at 450 nm was recorded by a plate reader. The cytoxicity in HEK293 and 3T3 cells was measured using the same procedure. Data is shown in Table 5 (NT=not toxic; --=not tested).

HEK293 cells = experiment: Cytotoxicity in HEK293 cells (CCK-8, 24 h); details: for HEK293 cytotoxicity at 100 μM ("100 μM result in x%"): NT=not toxic
Description: as §1

3T3 cells = experiment: Cytotoxicity in 3T3 cells (CCK-8, 24 h); details: for 3T3 cytotoxicity at 100 μM ("100 μM result in x%"): NT=not toxic
Description: as §1

Compound	H9c2 CC^50 (H9c2 cells) [µM]	HEK293 cytotoxicity at 100 μM ("100 μM result in x%") (HEK293 cells)	3T3 cytotoxicity at 100 μM ("100 μM result in x%") (3T3 cells)	3T3 CC^50 (3T3 cells) [µM]	other results
Cc1cc(COc2ccc(C(=N)N)cc2)cc(COc2ccc(C(=N)N)cc2)c1 [drawing 863]	50	100 μM result in 20%	100 μM result in 20%		
Cc1cc(COc2ccc(C3=NCCN3)cc2)cc(COc2ccc(C3=NCCN3)cc2)c1 [drawing 864]	25			25	
N=C(N)c1ccc(OCc2ccc(COc3ccc(C(=N)N)cc3)cc2)cc1 [drawing 869]	50	100 μM result in 30%	100 result in 10%		
COc1cc(C(=N)N)ccc1OCc1cc(C)cc(COc2ccc(C(=N)N)cc2OC)c1 [drawing 871]		100 μM result in 10%			
Cc1cc(COc2ccc(CN)cc2)cc(COc2ccc(CN)cc2)c1 [drawing 874]				25	HEK293 CC^50 (HEK293 cells): 25 µM
N=C(N)c1ccc(OCc2cc(COc3ccc(C(=N)N)cc3)cc(COc3ccc(C(=N)N)cc3)c2)cc1 [drawing 875]		100 μM result in 10%			
Cc1cc(CCc2ccc(C(=N)N)cc2)cc(CCc2ccc(C(=N)N)cc2)c1 [drawing 876]				50	HEK293 CC^50 (HEK293 cells): 50 µM
Cc1cc(OCc2ccc(C(=N)N)cc2)cc(OCc2ccc(C(=N)N)cc2)c1 [drawing 877]			100 UM result in 10%		
COc1cc(C(=N)N)ccc1OCc1cc(COc2ccc(C(=N)N)cc2OC)cc(C(C)(C)C)c1 [drawing 882]		100 μM result in 20%			
Cc1cc(COc2cccc(C(=N)N)c2)cc(COc2cccc(C(=N)N)c2)c1 [drawing 884]		100 μM result in 20%			
